Test results: patent US6103709A (priority 1998, dated 2000)
“Also recorded” adds a separate entry of the source.

Columns and labels:
[1] = tested on: MAP-kinase p42^mapk in NB4 cells; assay: MAP-kinase activation (p42mapk phosphorylation) in NB4 cells; format: cell-based, human
Method: In order to determine whether MAP-kinase phosphorylation is specific and is altered by 1α,25(OH)2 D3, the time-dependent effects of 1α,25(OH)2 D3 on p42^mapk phosphorylation was examined using human acute promyelocytic leukemia cells (NB4). In this study, the NB4 cells, cultured in 10% charcoal-stripped fetal calf serum (FCS) medium, were treated with 1α,25(OH)2 D3 at 10^-8 M for various time periods. Cells were then extracted and the phosphorylated MAP-kinase was immunoprecipitated with anti-phosphotyrosine antibody and further analyzed by Western blot using the antibodies against p42^mapk.
The lysate was further processed for anti-phosphotyrosine immunoprecipitation. […] After transferring the proteins to the PVDF membrane, the membrane was further incubated with primary anti-p42^mapk antibodies that were (+) or were not (-) pre-exposed to MAP-kinase peptide.
This example describes assays used for measurement of MAP-kinase activity in NB4 cells.
Cell culture of NB4 cells
The cell line is characterized by a translocation involving chromosomes 15 and 17, which is typical of the classical form of APL-M3 in the French-American-British [FAB] classification. NB4 cells were cultured in DMEM/F12 medium with 10% FCS at 5% CO2 balanced air and were routinely passaged as suspension cultures and only passages 8 to 20 were used for each assay.
Immunoprecipitation of Tyrosine-Phosphorylated Proteins
NB4 cells were cultured in 60-mm diameter dishes and treated with 1,25(OH)2 D3 or analogs in 4 ml of DMEM/F12 containing 10% charcoal-stripped FCS.
Insoluble material was removed in a microcentrifuge at 14,000 rpm for 10 min. Protein concentration was determined with a protein assay kit (Bio-Rad Lab, Hercules, Calif.). For immunoprecipitation, the supernatant was incubated with bead-conjugated monoclonal anti-phosphotyrosine antibody overnight at 4° C. The immunoprecipitates containing the tyrosine-phosphorylated proteins were washed four times with freshly-prepared RIPA buffer and further eluted with 2× Laemmli gel buffer.
At this point, the samples were either stored at -20° C. for further use or processed via Western blots. Equal loading of MAP-kinase protein was determined by running the Western blots using polyclonal anti-p42^mapk antibody. For this purpose, samples were aliquoted from each cell extract before immunoprecipitation.
SDS Gel Electrophoresis and Western blot
The membrane was further immunoblotted using a rabbit anti-p42^mapk polyclonal antibody overnight at 4° C. followed by incubation with secondary horseradish peroxidase-conjugated mouse anti-rabbit antibody for 1 hr at 25° C. The phosphorylated MAP-kinase bands were then visualized by enhanced chemiluminescence (ECL). A Ultrascan LX Laser Densitometer (LKB, Bromma, Sweden) scanned the density of the immuno-phosphoprotein bands. The results were normalized by protein loading and further plotted as percent of control of the band density.

[2] = tested on: chloride channels in ROS 17/2.8 cells; settings: 1 nM HL in the bath; 1α,25(OH)2 D3 5 nM or less
Method: In each case, at least a 3-min period was allowed after the addition of the analog to the bath for currents to reach a stable amplitude value. […] Anion currents were isolated from inward Ba^2+ currents after blockade of Ca^2+ channels with 100 μM Cd^2+.

VDRmem = assay: Binding to membrane receptor VDRmem; settings: relative to 1α,25(OH)2 D3

SMILES | antagonism of 1α,25(OH)2 D3-mediated MAP-kinase activation ([1]; HL 10^-9 M with 1α,25(OH)2 D3 at 1, 10 or 100×10^-10 M, 5 min) | stimulation of MAP-kinase by analog alone ([1]; HL alone) | antagonism of 1α,25(OH)2 D3-stimulated chloride channel opening [2] | activation of MAP-kinase versus 1α,25(OH)2 D3 ([1]; 1 minute) | activation of MAP-kinase versus 1α,25(OH)2 D3 ([1]; 5 minute) | binding to VDRmem receptor (VDRmem) [%]
C=C1/C(=C\C=C2/CCC[C@]3(C)[C@@H]([C@H](C)CCCC(C)(C)O)CC[C@@H]23)C[C@@H](O)C[C@H]1O [HL] | antagonist of activation of MAP-kinases; also recorded: capable of antagonizing rapid responses; also recorded: able to block 1α,25(OH)2 D3 | no stimulation of MAP-kinase | capable of antagonizing rapid responses; also recorded: inhibit the ability of 1α,25(OH)2 D3 to increase outward currents | – | – | –
C[C@H](CCCC(C)(C)O)[C@H]1CC[C@H]2C3=CC=C4C[C@@H](O)C[C@H](O)[C@@]4(C)[C@@H]3CC[C@]12C [JN] | – | – | – | more than 1α,25(OH)2 D3 | only slightly less active | 105
